Where two headings read alike, the source gives them in different places.
Tests used:
[1] = cited from earlier work
[2] = Comparison of EAA+arginine with fenofibrate in a similar population of elderly (FIG. 2)
[3] = patients with mixed hyperlipidemia, 80 mg atorvostatin daily or 200 mg fenofibrate

CC(C)c1c(C(=O)Nc2ccccc2)c(-c2ccccc2)c(-c2ccc(F)cc2)n1CC[C@@H](O)C[C@@H](O)CC(=O)O [atorvostatin]
reduction of TGs [1, 3]: 65% | reduction of VLDL [1, 3]: 57%

Cc1ccc(C)c(OCCCC(C)(C)C(=O)O)c1 [gemfibrozil]
time to maximal effects on TG ([1]; gemfibrozil treatment): ≤ 4 weeks | decrease of TG concentrations ([1]; patients with hypertryglyceridemia and hypercholesterolemia): 45% | decrease of TG concentrations ([1]; patients with isolated hypercholesterolemia): 38%

CC(C)OC(=O)C(C)(C)Oc1ccc(C(=O)c2ccc(Cl)cc2)cc1 [fenofibrate]
fall of plasma triglyceride concentration ([2]; fenofibrate treatment for 60 days): approximately 33% | effect on liver triglyceride ([2]; treatment for 60 days): no significant effect
